Measured values reported in US20260365670A1, “EGFR INHIBITORS AND USES THEREOF” (DIZAL (JIANGSU) PHARMACEUTICAL CO., LTD., priority 2022, published 2026).
Read-outs that look alike come from different tables or passages of the source.

Legend:
EGFR L858R = biological target: T1, EGFR L858R (Homo sapiens, UniProt P00533, L858R); test: Inhibition of EGFR L858R biochemical enzymatic activity (HTRF); details: 1 mM ATP, 1 h, room temperature, read-out: IC50 (nM) @L858R
T1 construct: purchased Carna Bio
T1 sequence (P00533 25-1210 L858R): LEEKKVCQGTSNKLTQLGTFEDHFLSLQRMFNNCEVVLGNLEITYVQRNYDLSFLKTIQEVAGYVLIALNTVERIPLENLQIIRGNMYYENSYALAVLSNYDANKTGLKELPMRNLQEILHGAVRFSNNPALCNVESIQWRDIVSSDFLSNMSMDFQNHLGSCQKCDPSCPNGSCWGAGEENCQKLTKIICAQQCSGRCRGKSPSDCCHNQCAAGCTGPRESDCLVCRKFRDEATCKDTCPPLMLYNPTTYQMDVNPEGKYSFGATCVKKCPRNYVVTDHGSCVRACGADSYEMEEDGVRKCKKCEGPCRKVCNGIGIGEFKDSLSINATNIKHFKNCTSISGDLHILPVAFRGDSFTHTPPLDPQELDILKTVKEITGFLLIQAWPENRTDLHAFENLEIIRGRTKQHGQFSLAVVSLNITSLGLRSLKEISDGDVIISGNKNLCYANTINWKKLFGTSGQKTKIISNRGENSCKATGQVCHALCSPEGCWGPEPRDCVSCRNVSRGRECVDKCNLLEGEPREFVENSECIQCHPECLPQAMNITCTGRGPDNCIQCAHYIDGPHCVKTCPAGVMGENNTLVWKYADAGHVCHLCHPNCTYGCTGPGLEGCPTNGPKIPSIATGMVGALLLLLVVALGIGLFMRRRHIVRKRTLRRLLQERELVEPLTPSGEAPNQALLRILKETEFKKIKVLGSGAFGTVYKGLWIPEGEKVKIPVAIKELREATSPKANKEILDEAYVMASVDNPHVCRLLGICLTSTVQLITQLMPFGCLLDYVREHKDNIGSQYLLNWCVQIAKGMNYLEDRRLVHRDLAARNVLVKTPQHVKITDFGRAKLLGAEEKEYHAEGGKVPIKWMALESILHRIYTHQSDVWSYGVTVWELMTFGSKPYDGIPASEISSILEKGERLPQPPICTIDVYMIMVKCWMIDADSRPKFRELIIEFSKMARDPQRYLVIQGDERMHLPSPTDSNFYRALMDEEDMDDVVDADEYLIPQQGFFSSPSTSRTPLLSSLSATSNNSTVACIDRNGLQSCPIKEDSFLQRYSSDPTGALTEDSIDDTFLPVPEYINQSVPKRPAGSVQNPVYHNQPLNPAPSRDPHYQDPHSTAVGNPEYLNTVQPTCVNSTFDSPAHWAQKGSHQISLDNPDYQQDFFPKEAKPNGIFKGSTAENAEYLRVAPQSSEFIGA
Outline: (§1)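 Using a high ATP level (1 mM), wild-type and mutant EGFR enzymes were incubated 1 h at room temperature with inhibitor and 1 μM biotinylated TK substrate. Phosphorylation was quantified as the 665/615 nm HTRF ratio. IC50s were derived by logistic fitting.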

EGFR (C797S L858R) = biological target: T2, EGFR (C797S L858R) (Homo sapiens, UniProt P00533, C797S/L858R); test: Inhibition of EGFR (C797S L858R) biochemical enzymatic activity (HTRF); details: EGFR L858-C797S, 1 mM ATP, 1 h, room temperature, read-out: IC50 (nM) @L858-C797S
T2 construct: purchased signalchem
Outline: as §1

A-431 = test: Cell proliferation GI50, A-431 cells (Table 6); type: cell-based
EGFR (d746-750 C797S) = biological target: T3, EGFR (d746-750 C797S) (Homo sapiens, UniProt P00533, C797S/DEL746-750); test: Inhibition of EGFR (d746-750 C797S) biochemical enzymatic activity (HTRF); details: EGFR Del19-C797S, 1 mM ATP, 1 h, room temperature, read-out: IC50 (nM) @Del19-C797S
T3 construct: purchased signalchem
T3 sequence (P00533 with tags, fused parts or gaps DEL746-750/C797S limits assumed): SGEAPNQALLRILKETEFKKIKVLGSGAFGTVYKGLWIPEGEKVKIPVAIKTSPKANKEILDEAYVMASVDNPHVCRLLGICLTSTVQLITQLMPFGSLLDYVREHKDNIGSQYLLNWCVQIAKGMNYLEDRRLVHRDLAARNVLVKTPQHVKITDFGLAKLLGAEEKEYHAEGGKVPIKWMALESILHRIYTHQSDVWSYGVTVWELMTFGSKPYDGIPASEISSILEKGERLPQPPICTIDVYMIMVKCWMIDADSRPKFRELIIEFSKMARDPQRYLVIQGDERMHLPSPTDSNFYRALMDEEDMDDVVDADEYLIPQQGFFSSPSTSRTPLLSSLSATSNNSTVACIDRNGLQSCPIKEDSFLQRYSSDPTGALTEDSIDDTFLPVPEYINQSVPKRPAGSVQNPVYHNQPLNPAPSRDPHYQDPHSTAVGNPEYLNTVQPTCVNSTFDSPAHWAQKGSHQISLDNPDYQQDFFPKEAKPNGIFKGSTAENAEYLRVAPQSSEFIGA
Outline: as §1

EGFR L858R/T790M = biological target: T4, EGFR L858R/T790M (Homo sapiens, UniProt P00533, L858R/T790M); test: Inhibition of EGFR L858R/T790M biochemical enzymatic activity (HTRF); details: EGFR L858R-T790M, 1 mM ATP, 1 h, room temperature, read-out: IC50 (nM) @L858R-T790M
T4 construct: purchased Carna Bio
T4 sequence (P00533 25-1210 T790M/L858R): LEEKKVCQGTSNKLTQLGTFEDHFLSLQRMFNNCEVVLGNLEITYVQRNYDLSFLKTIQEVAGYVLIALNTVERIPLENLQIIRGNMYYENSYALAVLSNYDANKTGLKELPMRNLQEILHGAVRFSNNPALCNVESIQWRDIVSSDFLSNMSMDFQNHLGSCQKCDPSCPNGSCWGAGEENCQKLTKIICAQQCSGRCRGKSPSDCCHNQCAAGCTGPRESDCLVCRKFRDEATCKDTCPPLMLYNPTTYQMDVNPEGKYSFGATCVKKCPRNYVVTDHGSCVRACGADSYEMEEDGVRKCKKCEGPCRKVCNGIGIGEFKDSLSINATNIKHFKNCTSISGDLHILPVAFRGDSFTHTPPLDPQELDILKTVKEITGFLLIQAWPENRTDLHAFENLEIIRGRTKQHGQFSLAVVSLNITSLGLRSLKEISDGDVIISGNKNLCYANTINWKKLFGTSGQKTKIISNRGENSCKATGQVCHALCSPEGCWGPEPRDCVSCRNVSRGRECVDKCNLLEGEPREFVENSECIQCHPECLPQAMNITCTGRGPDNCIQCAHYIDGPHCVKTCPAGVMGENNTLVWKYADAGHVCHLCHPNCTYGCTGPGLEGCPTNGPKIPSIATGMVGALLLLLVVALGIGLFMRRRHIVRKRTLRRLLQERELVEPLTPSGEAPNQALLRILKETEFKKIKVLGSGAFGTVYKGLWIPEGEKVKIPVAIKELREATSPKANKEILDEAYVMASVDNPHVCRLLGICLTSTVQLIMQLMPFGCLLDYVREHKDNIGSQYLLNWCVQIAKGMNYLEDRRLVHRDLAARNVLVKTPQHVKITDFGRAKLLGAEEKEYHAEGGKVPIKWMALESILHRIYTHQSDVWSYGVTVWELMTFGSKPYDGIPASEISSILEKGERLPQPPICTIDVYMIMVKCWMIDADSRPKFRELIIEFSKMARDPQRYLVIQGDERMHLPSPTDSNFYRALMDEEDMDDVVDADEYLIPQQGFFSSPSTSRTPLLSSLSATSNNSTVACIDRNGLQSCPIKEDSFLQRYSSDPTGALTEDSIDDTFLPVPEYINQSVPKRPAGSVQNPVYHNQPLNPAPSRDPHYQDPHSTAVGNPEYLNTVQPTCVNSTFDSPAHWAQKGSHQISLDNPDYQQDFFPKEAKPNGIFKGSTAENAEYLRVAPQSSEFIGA
Outline: as §1

EGFR wild type = biological target: T5, EGFR wild type (Homo sapiens, UniProt P00533); test: Inhibition of EGFR wild type biochemical enzymatic activity (HTRF); details: EGFR WT, 1 mM ATP, 1 h, room temperature, read-out: IC50 (nM) @WT
T5 construct: purchased Carna Bio
Outline: as §1

EGFR[T790M/C797S/L858R] = biological target: T6, EGFR[T790M/C797S/L858R] (Homo sapiens, UniProt P00533, C797S/L858R/T790M); test: Inhibition of EGFR[T790M/C797S/L858R] biochemical enzymatic activity (HTRF); details: EGFR T790M-C797S-L858R, 1 mM ATP, 1 h, room temperature, read-out: IC50 (nM) @T790M- C797S - L858R
T6 construct: purchased Carna Bio
T6 sequence (P00533 25-1210 T790M/C797S/L858R): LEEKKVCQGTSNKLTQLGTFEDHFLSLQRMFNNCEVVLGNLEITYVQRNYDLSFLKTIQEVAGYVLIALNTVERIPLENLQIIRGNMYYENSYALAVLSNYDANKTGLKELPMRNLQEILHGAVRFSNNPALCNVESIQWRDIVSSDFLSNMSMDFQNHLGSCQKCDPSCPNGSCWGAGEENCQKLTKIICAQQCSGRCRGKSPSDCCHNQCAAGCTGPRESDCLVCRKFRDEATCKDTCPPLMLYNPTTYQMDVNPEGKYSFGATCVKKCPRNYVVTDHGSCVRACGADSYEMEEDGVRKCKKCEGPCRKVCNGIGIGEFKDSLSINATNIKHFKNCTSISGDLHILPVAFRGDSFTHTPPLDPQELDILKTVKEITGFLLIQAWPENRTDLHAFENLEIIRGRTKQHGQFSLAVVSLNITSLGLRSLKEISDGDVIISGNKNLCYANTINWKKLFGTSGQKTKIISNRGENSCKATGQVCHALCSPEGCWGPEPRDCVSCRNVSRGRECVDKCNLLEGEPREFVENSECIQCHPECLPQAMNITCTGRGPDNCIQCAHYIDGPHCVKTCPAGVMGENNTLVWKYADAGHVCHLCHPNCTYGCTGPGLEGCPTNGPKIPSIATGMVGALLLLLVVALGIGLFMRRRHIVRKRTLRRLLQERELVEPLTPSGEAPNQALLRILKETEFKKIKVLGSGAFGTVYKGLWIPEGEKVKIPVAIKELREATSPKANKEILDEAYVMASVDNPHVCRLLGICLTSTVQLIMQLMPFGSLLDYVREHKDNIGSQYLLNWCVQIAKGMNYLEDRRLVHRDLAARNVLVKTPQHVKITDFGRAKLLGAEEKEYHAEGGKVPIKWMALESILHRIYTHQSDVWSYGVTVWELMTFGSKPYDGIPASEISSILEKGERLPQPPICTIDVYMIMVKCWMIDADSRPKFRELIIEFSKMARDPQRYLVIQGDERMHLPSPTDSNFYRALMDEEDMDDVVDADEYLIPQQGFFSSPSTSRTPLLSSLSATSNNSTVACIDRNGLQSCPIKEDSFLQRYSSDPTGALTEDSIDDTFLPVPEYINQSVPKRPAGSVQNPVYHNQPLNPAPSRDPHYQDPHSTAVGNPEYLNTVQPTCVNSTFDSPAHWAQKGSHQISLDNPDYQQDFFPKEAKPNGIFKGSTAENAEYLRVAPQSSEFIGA
Outline: as §1

EGFR Exon19Del = biological target: T7, EGFR Exon19Del (Homo sapiens, UniProt P00533, DEL746-750); test: Inhibition of EGFR Exon19Del biochemical enzymatic activity (HTRF); details: EGFR Del19, 1 mM ATP, 1 h, room temperature, read-out: IC50 @Del19
T7 construct: purchased Carna Bio
T7 sequence (P00533 with tags, fused parts or gaps DEL746-750 limits assumed): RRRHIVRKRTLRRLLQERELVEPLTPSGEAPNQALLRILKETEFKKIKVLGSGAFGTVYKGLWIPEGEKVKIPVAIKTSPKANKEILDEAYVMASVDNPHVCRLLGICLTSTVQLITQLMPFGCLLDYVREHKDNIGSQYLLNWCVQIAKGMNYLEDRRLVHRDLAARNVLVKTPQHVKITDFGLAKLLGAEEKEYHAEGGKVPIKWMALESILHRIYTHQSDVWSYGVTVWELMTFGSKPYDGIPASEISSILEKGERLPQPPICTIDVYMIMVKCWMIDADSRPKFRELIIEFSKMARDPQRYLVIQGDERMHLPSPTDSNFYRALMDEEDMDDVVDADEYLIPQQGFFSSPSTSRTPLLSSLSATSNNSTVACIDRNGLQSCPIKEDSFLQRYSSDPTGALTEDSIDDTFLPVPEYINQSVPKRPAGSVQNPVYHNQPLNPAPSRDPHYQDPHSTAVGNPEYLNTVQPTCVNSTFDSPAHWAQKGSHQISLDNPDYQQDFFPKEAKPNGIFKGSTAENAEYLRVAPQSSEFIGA
Outline: as §1

EGFR Exon19Del/T790M = biological target: T8, EGFR Exon19Del/T790M (Homo sapiens, UniProt P00533, DEL746-750/T790M); test: Inhibition of EGFR Exon19Del/T790M biochemical enzymatic activity (HTRF); details: EGFR Del19-T790M, 1 mM ATP, 1 h, room temperature, read-out: IC50 (nM) @Del19-T790M
T8 construct: purchased Carna Bio
Outline: as §1

[1] = biological target: T9, EGFR[T790M/C797S/d746-750] (Homo sapiens, UniProt P00533, C797S/DEL746-750/T790M); test: Inhibition of EGFR[T790M/C797S/d746-750] biochemical enzymatic activity (HTRF); details: EGFR T790M-C797S-Del19, 1 mM ATP, 1 h, room temperature, read-out: IC50 (nM) @T790M - C797S - Del19
T9 construct: purchased Carna Bio
Outline: as §1

[2] = tested on: Ba/F3 cells expressing EGFR mutations; test: Cell proliferation assay, Ba/F3 cells expressing EGFR mutations (CellTiter-Glo, 72 hours); type: cell-based; details: CellTiter-Glo
Outline: (§2)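 Ba/F3 cells (5000/well) and PC-9 cells (500/well, RPMI1640 with 10% FBS) were plated overnight and then dosed with a compound concentration series. Viable cells were read at day 0 (G0) and after treatment (G3). GI50 came from curve fits of G0-corrected proliferation relative to DMSO.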

PC-9 = test: Cell proliferation assay, PC-9 cells (CellTiter-Glo, 72 hours); type: cell-based; details: PC9 cells, CellTiter-Glo, read-out: PC9 GI50
Outline: as §2

[3] = BaF3 cells, EGFR DEL19-C797S, read-out: DEL19-C797S/BaF3 GI50
[4] = BaF3 cells, EGFR DEL19-T790-C797S, read-out: DEL19-T790-C797S/BaF3 GI50
[5] = BaF3 cells, EGFR L858R, read-out: L858R/BaF3 GI50
[6] = BaF3 cells, EGFR L858R-C797S, read-out: L858R-C797S/BaF3 GI50
[7] = BaF3 cells, EGFR L858R-T790-C797S, read-out: L858R-T790-C797S/BaF3 GI50
[8] = BaF3 cells, EGFR L858R-T790M, read-out: L858R-T790M/BaF3 GI50
[9] = EGFR DEL19-T790M, read-out: DEL19-T790M GI50
[10] = Homo sapiens, A-431, A-431 cells

Structure (SMILES)	IC50 (EGFR L858R) [nM]	IC50 (EGFR (C797S L858R)) [nM]	GI50 (A-431; A-431 cells) [nM]	IC50 (EGFR (d746-750 C797S)) [nM]	IC50 (EGFR L858R/T790M) [nM]	IC50 (EGFR wild type) [nM]	IC50 (EGFR[T790M/C797S/L858R]) [nM]	IC50 (EGFR Exon19Del) [nM]	IC50 (EGFR Exon19Del/T790M) [nM]	IC50 [1] [nM]	GI50 [2, 3] [nM]	GI50 [2, 4] [nM]	GI50 [2, 5] [nM]	GI50 [2, 6] [nM]	GI50 [2, 7] [nM]	GI50 [2, 8] [nM]	GI50 [2, 9] [nM]	GI50 (PC-9) [nM]	GI50 (A-431; [10]) [nM]
CN1CCC2(C1)CN(c1ccc3nc4n(c3c1)C13CCC(CN(CCOc5c(cnn5C)-c5cc(cn(C)c5=O)C(=O)N4)C1)C3)C2 (single isomer, unassigned) [Example A78B]	2.4	2.2	434	0.91	2.4	11	1.4	1.2	2.7	1.6	0.51	0.82	0.87	0.74	0.9	1	0.75	2.4	–
CN1CCC2CN(c3ccc4nc5n(c4c3)C34CCC(CN(CCOc6c(cnn6C)-c6cc(cn(C)c6=O)C(=O)N5)C3)C4)CC21 (single isomer, unassigned) [Example A79B]	27	13	–	5	12	126	8.3	6.3	10	11	0.7	10	12	8.5	14	37	13	23	1280
CN1CCN(C2CCN(c3ccc4nc5n(c4c3)C34CCC(CN(CCOc6c(cnn6C)-c6cc(cn(C)c6=O)C(=O)N5)C3)C4)C2)CC1 (single isomer, unassigned) [Example A80B1, 15,21-Dimethyl-5-[3-(4-methylpiperazin-1-yl)pyrrolidin-1-yl]-23-oxa-2,9,11,15,20,21,26-heptaazaheptacyclo[24.4.1.1^{1,28}.1^{13,17}.0^{2,10}.0^{3,8}.0^{18,22}]tritriaconta-3,5,7,9,13,17(33),18(22),19-octaene-12,16-dione]	7.2	8.8	6140	3.1	7.8	9.3	6.7	3.2	6.2	5.1	0.55	1	1.2	3	1	4.2	1	11	–
CN1CCC2(CCN(c3ccc4nc5n(c4c3)C34CCC(CN(CCOc6c(cnn6C)-c6cc(cn(C)c6=O)C(=O)N5)C3)C4)C2)C1 (single isomer, unassigned) [Example A81A]	1530	> 5000	–	389	> 5000	> 5000	> 5000	404	> 5000	> 5000	107	258	319	170	381	350	178	247	1320
CN1CCC2(CCN(c3ccc4nc5n(c4c3)C34CCC(CN(CCOc6c(cnn6C)-c6cc(cn(C)c6=O)C(=O)N5)C3)C4)C2)C1 (single isomer, unassigned) [Example A81B]	3.2	3.1	667	1.7	2.3	6.6	2.3	1.8	2.8	2.3	0.7	2.8	2.6	2.7	11	12	1.9	6.9	–
CN1CCC2(CCN(c3ccc4nc5n(c4c3)C34CCC(CN(CCOc6c(cnn6C)-c6cc(cn(C)c6=O)C(=O)N5)C3)C4)CC2)C1 (single isomer, unassigned) [Example A82B]	0.87	1.4	–	0.87	1.8	0.92	1.7	1.1	2.1	2	0.77	0.86	0.78	0.68	1	0.82	0.9	2.4	203
Cn1ncc2c1OCCN1CC3CCC(C3)(C1)n1c(nc3ccc(N4CCN(C5CC5)CC4)cc31)NC(=O)c1cc-2c(=O)n(C)c1 (single isomer, unassigned) [Example A83A]	2020	2600	7760	577	> 5000	> 5000	> 5000	428	> 5000	> 5000	176	789	993	468	1090	1130	585	766	–
